Entries after “also recorded” stand apart in the source; their conditions may differ.
Columns and labels:
[1] = test system: Con A-stimulated mouse splenocytes; assay: transwell chemotaxis assay in response to CXCL12, Con A-stimulated splenocytes; format: cell-based; settings: Mus musculus, Splenocyte, 4 h; read-out: inhibition of CXCL12-induced migration
Description: Isolation of murine splenocytes. Splenocytes were isolated from 6-8 week old C57BL/6 mice obtained from Jackson Laboratories (Bar Harbor, Me.). Spleens were removed and a single-cell suspension prepared using 40 μm cell strainers (Fisher Scientific). Cells were washed with RPMI 1640 medium supplemented with 5% fetal bovine serum, 2 mM L-glutamine, 100 U/ml penicillin and […] (all from GIBCO). Red blood cells were lysed using standard lysis buffer (0.15M NH4Cl, 10mM KHCO3, 0.1 mM EDTA PH 7.4). Cells were then washed and used in chemotaxis assays either as unstimulated cells or after stimulation with Con A ([…]) as indicated.
Preparation of Test Reagents. […] This concentration of DMSO had no effect on migration of splenocytes in the presence or absence of CXCL12. CXCL12 was prepared as a 100 μg/ml stock solution in PBS+0.1% BSA, Con A was prepared as a stock of 2.5 mg/ml in PBS, and dibutyryl cAMP and Rp-cAMPS were prepared as 50 mM stock solutions in water, and these reagents were diluted directly into the chemotaxis assays.
Chemotaxis Assay. Chemotaxis assays were done in 24-well transwell plates with a pore size of 5 μm (Costar, Corning). Splenocytes were placed in medium at a concentration of 3×10^6 cells/ml. Where test agents were used, splenocytes were pretreated with the agent or vehicle for 45 to 60 min, following which 100 μl of the splenocyte suspension was placed into the upper chamber of transwell plates, and the lower chamber was filled with 600 μl of medium. When added to induce migration, CXCL12 (250 ng/ml) was added to the lower chamber only. Other test reagents were added as indicated to both the upper and lower chambers. After 4 hours of incubation at 37° C. in 5% CO2, transwell inserts were gently removed and the number of cells that migrated into the lower chamber were counted by withdrawing 500 μl of lower chamber medium, mixing it with 10 ml of buffer and counting the cells on a Coulter Counter (Beckman Coulter Z series). Where results are expressed as % of CXCL12-stimulated migration, this was calculated as follows: (cells migrated in presence of CXCL12 and test reagent—cells migrated in medium alone)/(cells migrated in presence of CXCL12-cells migrated in medium alone)×100. Experimental points for all chemotaxis assays were performed in triplicate.
Splenocytes isolated from mice were assayed for migration in response to CXCL12 (250 ng/ml), either directly (unstimulated) or following 48 hr of incubation with 3 μg/ml Con A (stimulated), as described in Methods. To test for effects of dibutyryl cAMP, cells were pretreated with dibutyryl cAMP (500 μM) for 45-60 min prior to beginning the chemotaxis assay, and the assays were conducted with dibutyryl cAMP (db-cAMP) present (500 μM) in both the upper and lower chambers of the transwell plates. Data plotted are derived from a single experiment performed in triplicate. *p<0.001; **p<0.02.

CD4+CD25− T cells = assay: [3H]thymidine proliferation assay of CD4+CD25− T cells; format: cell-based, mouse
Description: Proliferation assays. T cell-depleted splenocytes (Tds) were obtained by negative selection with murine anti-CD4 and anti-CD8 microbeads (Miltenyi Biotec). Isolated CD4^+CD25^− T cells (5×10^4/well) were cultured in 96-well plates (Costar) with irradiated Tds (5×10^4/well) (2600 rad) in the presence or absence of soluble anti-CD3 mAb (0.7 μg/ml) (R&D Systems, Minneapolis, Minn.). DP (100 μM), IBMX (300 μM) or vehicle control (0.1% DMSO in media) were added at 0 hours. After 48 hours, 2 μCi per well of [^3H]thymidine (NEN, Waltham, Mass.) was added and cells were harvested 16 hours later using a semiautomated cell harvester and [^3H]thymidine incorporation determined by scintillation counting. Cell viability in suppression assays was determined using trypan blue (2.5%) at 64 hours of incubation.
In FIG. 22, purified CREM/ICER^+/+ or CREM/ICER^−/− derived CD4^+CD25^−T cells (5×10^4/well) were cocultured with irradiated T cell depleted splenocytes (5×10^4 well) presenting soluble anti-CD3 mAb (0.75 μg/ml) and the cultures were incubated with IBMX (300 μM), DP (100 μM), or vehicle (media) for 64 hours with [3H]thymidine added for the final 16 hours. The extent of proliferation was determined by [3H]thymidine incorporation at 64 hours and the data are presented as the mean cpm+SEM of an experiment run in triplicate. The results are representative of 2 independent experiments. […] (*p<0.05, **p<0.001; comparisons to vehicle were analyzed using a one way ANOVA followed by Bonferroni t-test and using an unpaired t-test for comparisons between DP and IBMX).

bEnd.3 cells = assay: intracellular cAMP ELISA in bEnd.3 cells; format: cell-based, mouse; settings: DP 100 μM, IBMX 300 μM; for cAMP levels in bEnd.3 cells: 45 minutes
Description: Intracellular cAMP ELISAs. Activated bEnd.3 cells were treated as described above for 20, 45, or 90 minutes. cAMP levels were determined with a Correlate cAMP ELISA kit (Assay Designs, Ann Arbor, Mich.) using an ELISA reader (Bio-Rad, Hercules, Calif.) at 405 nm.
In FIG. 23B, IBMX (300 μM), DP (100 μM), or vehicle (0.1% DMSO) were added to the bEnd.3 cells for the final 20, 45, and 90 minutes of TNF-α exposure and the cellular cAMP content analyzed by ELISA. The values are given as the mean±SEM of an experiment run in duplicate with the results representative of 2 independent experiments (*p<0.05, **p<0.001; one way ANOVA followed by Bonferroni t-test for comparisons between vehicle and DP or IBMX and an unpaired t-test for comparisons between DP and IBMX).

PDE8A1 catalytic domain = PDE8A1 catalytic domain (Homo sapiens, UniProt O60658); settings: wild type; cited from earlier work
[2] = biological target: Y748F mutant of PDE8A catalytic domain (Homo sapiens, UniProt O60658, Y748F); settings: cited from earlier work
[3] = 64 hours, DP 100 μM, IBMX 300 μM

Y748F mutant of PDE8A catalytic domain, sequence (O60658 480-820 Y748F limits assumed): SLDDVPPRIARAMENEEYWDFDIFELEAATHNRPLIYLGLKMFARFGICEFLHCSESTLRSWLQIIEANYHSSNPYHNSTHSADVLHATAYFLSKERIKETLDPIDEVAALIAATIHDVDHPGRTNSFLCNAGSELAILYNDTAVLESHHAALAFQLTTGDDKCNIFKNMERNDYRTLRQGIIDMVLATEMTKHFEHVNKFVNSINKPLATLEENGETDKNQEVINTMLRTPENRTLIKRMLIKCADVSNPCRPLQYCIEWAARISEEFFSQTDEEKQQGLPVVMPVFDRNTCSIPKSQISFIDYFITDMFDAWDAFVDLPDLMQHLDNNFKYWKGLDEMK
PDE8A1 catalytic domain, sequence (O60658 480-820 limits assumed): as the sequence (O60658 480-820 Y748F limits assumed) above, with F269Y counted along it

Structure (SMILES)	inhibition at 100 µM [1] [%]	T cell proliferation ([3H]thymidine incorporation) (CD4+CD25− T cells; [3])	inhibition of proliferation, DP compared with IBMX (CD4+CD25− T cells; 64 hours, DP 100 μM, IBMX 300 μM, listed as DP)	effect of Crem gene deletion (CREM/ICER−/− T cells) on DP mediated suppression of proliferation (CD4+CD25− T cells; DP 100 μM)	viability of T cells (CD4+CD25− T cells; trypan blue at 64 hours, DP treatment)	cAMP levels in bEnd.3 cells (bEnd.3 cells)	increase of cAMP levels in bEnd.3 cells (bEnd.3 cells; within 20 minutes)	IC50 (PDE8A1 catalytic domain) [µM]	IC50 [2] [µM]	inhibition at 300 µM [1] [%]	sensitivity of PDE8A1 catalytic domain to inhibition (PDE8A1 catalytic domain)	sensitivity of Tyr748-to-phenylalanine mutant to inhibition [2]
OCCN(CCO)c1nc(N2CCCCC2)c2nc(N(CCO)CCO)nc(N3CCCCC3)c2n1 [Dipyridamole, 2,2′,2″,2′″-(4,8-di(piperidin-1-yl)pyrimido[5,4-d]pyrimidine-2,6-diyl)bis(azanetriyl)tetraethanol]	54	potently suppressed	more potently than IBMX; also recorded: greater	did not affect	not affected	significantly increased	over 2 fold	~6	~4.1	–	–	–
CC(C)Cn1c(=O)n(C)c(=O)c2[nH]cnc21 [IBMX, 3-isobutyl-1-methylxanthine]	–	potently suppressed	–	–	–	significantly increased	–	–	–	21	insensitive	restores sensitivity
